Data from the supplement of paper PMC10331698.
± gives the standard deviation of the averaged measurements.

Legend:
Assay in all cases: level (log10 ratio to DMSO vehicle control); higher = higher biomarker level / cell amount than vehicle control
Settings in all cases: in DMSO
[1] = compound: CNS(=O)(=O)C(F)(F)C(F)(F)C(F)(F)C(F)(F)C(F)(F)C(F)(F)C(F)(F)C(F)(F)F [N-Methylperfluorooctanesulfonamide]
Method: (§1)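 BioMAP Diversity Plus panel of 12 human primary cell co-culture systems (3C, 4H, LPS, SAg, BT, BF4T, BE3C, CASM3C, HDF3CGF, KF3CT, MyoF, Mphg). Compounds were added 1 h before stimulation and left for 24 h (MyoF 48 h; BT 72 h for soluble read-outs or 6 d for IgG). Biomarkers were read by ELISA, cytotoxicity by SRB, PBMC viability and proliferation by Alamar Blue. Each well value was divided by the mean of 8 DMSO control wells on the same plate and log10 transformed; duplicate blinded samples were tested at 4 concentrations.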

[2] = compound: O=S(=O)(O)C(F)(F)C(F)(F)C(F)(F)C(F)(F)C(F)(F)C(F)(F)C(F)(F)C(F)(F)F [Potassium perfluorooctanesulfonate]
Method: as §1

1H,1H-Heptafluorobutanol = compound: OCC(F)(F)C(F)(F)C(F)(F)F [1H,1H-Heptafluorobutanol]
Method: as §1

[3] = compound: O=P(O)(O)CCC(F)(F)C(F)(F)C(F)(F)C(F)(F)C(F)(F)C(F)(F)C(F)(F)C(F)(F)F [((Perfluorooctyl)ethyl)phosphonic acid]
Method: as §1

[4] = compound: O=C(O)C(F)(F)OC(F)(F)C(F)(F)OC(F)(F)C(F)(F)C(F)(F)C(F)(F)F [Perfluoro-3,6-dioxadecanoic acid]
Method: as §1

[5] = compound: O=C(O)C(F)(F)C(F)(F)C(F)(F)C(F)(F)C(F)(F)C(F)(F)C(F)(F)C(F)(F)Cl [9-Chloro-perfluorononanoic acid]
Method: as §1

Perfluorohexanoic acid = compound: O=C(O)C(F)(F)C(F)(F)C(F)(F)C(F)(F)C(F)(F)F [Perfluorohexanoic acid]
Method: as §1

Row | Test System | level (log10) ([1]; 6700 nM) | level (log10) ([1]; 20000 nM) | level (log10) ([1]; 60000 nM) | level (log10) ([2]; 6700 nM) | level (log10) ([2]; 20000 nM) | level (log10) ([2]; 60000 nM) | level (log10) (1H,1H-Heptafluorobutanol; 6700 nM) | level (log10) (1H,1H-Heptafluorobutanol; 20000 nM) | level (log10) (1H,1H-Heptafluorobutanol; 60000 nM) | level (log10) ([3]; 6700 nM) | level (log10) ([3]; 20000 nM) | level (log10) ([3]; 60000 nM) | level (log10) ([4]; 6700 nM) | level (log10) ([4]; 20000 nM) | level (log10) ([4]; 60000 nM) | level (log10) ([5]; 6700 nM) | level (log10) ([5]; 20000 nM) | level (log10) (Perfluorohexanoic acid; 6700 nM) | level (log10) (Perfluorohexanoic acid; 20000 nM) | level (log10) (Perfluorohexanoic acid; 60000 nM)
1 | HDF3CGF:CCL2/MCP-1 | 0.034 ± 0.0085 | 0.0305 ± 0.0035 | 0.029 ± 0.014 | 0.002 ± 0.011 | -0.003 ± 0.0042 | 0.001 ± 0.017 | 0.001 ± 0.014 | 0.0225 ± 0.021 | -0.009 ± 0.03 | 0.028 ± 0.011 | -0.005 ± 0.0014 | -0.0855 ± 0.056 | 0.0135 ± 0.018 | -0.017 ± 0.0071 | -0.043 ± 0.0014 | 0.0205 ± 0.022 | -0.013 ± 0.021 | -0.0145 ± 0.00071 | -0.009 ± 0.03 | -0.0205 ± 0.04
2 | HDF3CGF:CD54/ICAM-1 | -0.002 ± 0.0028 | -0.0075 ± 0.019 | -0.0845 ± 0.0035 | -0.0015 ± 0.0064 | -0.002 ± 0.014 | -0.0525 ± 0.012 | -0.008 ± 0.0042 | 0.0005 ± 0.0021 | 0.0045 ± 0.0092 | -0.009 ± 0.0099 | -0.0235 ± 0.015 | -0.0625 ± 0.028 | -0.0025 ± 0.021 | -0.0125 ± 0.026 | -0.038 ± 0.04 | -0.077 ± 0.017 | -0.112 ± 0.014 | -0.009 ± 0.013 | -0.017 ± 0.013 | -0.019 ± 0.037
3 | HDF3CGF:CD106/VCAM-1 | -0.164 ± 0.017 | -0.176 ± 0.029 | -0.154 ± 0.0021 | -0.032 ± 0.027 | -0.0925 ± 0.018 | -0.281 ± 0.026 | -0.033 ± 0.048 | -0.003 ± 0.079 | -0.0055 ± 0.09 | 0.098 ± 0.0028 | -0.006 ± 0.0085 | -0.145 ± 0.012 | -0.0845 ± 0.0021 | -0.15 ± 0.0057 | -0.21 ± 0.013 | -0.0005 ± 0.074 | -0.067 ± 0.096 | -0.043 ± 0.04 | -0.008 ± 0.023 | -0.0145 ± 0.086
4 | HDF3CGF:CXCL8/IL-8 | -0.0145 ± 0.0035 | -0.0195 ± 0.00071 | -0.0015 ± 0.0035 | -0.007 ± 0.0085 | -0.0065 ± 0.0035 | 0.004 ± 0.013 | -0.0025 ± 0.0064 | 0 ± 0.0028 | 0.0015 ± 0.0021 | -0.0065 ± 0.022 | -0.005 ± 0.0057 | -0.0485 ± 0.011 | -0.0065 ± 0.005 | -0.001 ± 0.0028 | 0.001 ± 0.016 | -0.0225 ± 0.011 | 0.0015 ± 0.005 | -0.003 ± 0.0057 | 0.006 ± 0.0014 | 0.005 ± 0.0071
5 | HDF3CGF:CXCL9/MIG | -0.0065 ± 0.03 | 0.0105 ± 0.011 | -0.0205 ± 0.011 | -0.024 ± 0.024 | -0.017 ± 0.02 | -0.116 ± 0.04 | 0.0035 ± 0.028 | -0.0005 ± 0.022 | -0.008 ± 0.033 | 0.102 ± 0.017 | 0.0505 ± 0.018 | -0.0155 ± 0.061 | -0.0175 ± 0.0064 | -0.046 ± 0.092 | -0.126 | -0.047 ± 0.02 | -0.142 ± 0.04 | 0.004 ± 0.0099 | 0.001 ± 0.0099 | -0.019 ± 0.034
6 | HDF3CGF:CXCL10/IP-10 | -0.102 ± 0.064 | -0.099 ± 0.071 | -0.0875 ± 0.022 | -0.0815 ± 0.03 | -0.131 ± 0.06 | -0.313 ± 0.044 | 0.0105 ± 0.04 | -0.006 ± 0.016 | -0.0055 ± 0.011 | 0.077 ± 0.0014 | 0.0255 ± 0.005 | -0.0375 ± 0.005 | -0.0505 ± 0.019 | -0.0745 ± 0.026 | -0.156 ± 0.04 | -0.06 ± 0.027 | -0.175 ± 0.0021 | -0.0135 ± 0.023 | -0.0215 ± 0.0035 | -0.0235 ± 0.013
7 | HDF3CGF:CXCL11/I-TAC | -0.0385 ± 0.015 | -0.069 ± 0.0071 | -0.0495 ± 0.011 | 0.0005 ± 0.019 | -0.0375 ± 0.015 | -0.135 ± 0.0028 | -0.0135 ± 0.022 | -0.0185 ± 0.011 | -0.031 ± 0.061 | 0.084 ± 0.0014 | 0.064 ± 0.018 | -0.0155 ± 0.035 | -0.0355 ± 0.023 | -0.0895 ± 0.028 | -0.168 ± 0.024 | -0.105 ± 0.029 | -0.217 ± 0.069 | 0.0045 ± 0.005 | 0.0005 ± 0.021 | -0.021 ± 0.031
8 | HDF3CGF:Collagen I | -0.0245 ± 0.012 | -0.041 ± 0.038 | 0.0085 ± 0.066 | 0.0215 ± 0.0064 | -0.0125 ± 0.0092 | -0.0295 ± 0.061 | -0.005 ± 0.016 | -0.0215 ± 0.0021 | 0.012 ± 0.017 | -0.041 | -0.116 ± 0.015 | -0.148 ± 0.1 | -0.052 ± 0.011 | -0.0485 ± 0.0064 | -0.095 ± 0.13 | -0.0595 ± 0.005 | -0.151 ± 0.0042 | -0.035 ± 0.033 | 0.02 ± 0.025 | -0.0035 ± 0.054
9 | HDF3CGF:Collagen III | -0.102 ± 0.0035 | -0.143 ± 0.011 | -0.092 ± 0.037 | -0.013 ± 0.0099 | -0.0525 ± 0.042 | -0.106 ± 0.017 | -0.0055 ± 0.076 | -0.0285 ± 0.052 | -0.0155 ± 0.044 | -0.119 ± 0.011 | -0.193 | -0.281 ± 0.029 | -0.024 ± 0.044 | -0.0885 ± 0.035 | -0.286 ± 0.045 | -0.0835 ± 0.046 | -0.235 ± 0.061 | 0.0515 ± 0.013 | 0.0305 ± 0.0092 | -0.0245 ± 0.071
10 | HDF3CGF:EGFR | 0.016 ± 0.0057 | -0.014 ± 0.023 | 0.0055 ± 0.0064 | -0.0055 ± 0.019 | -0.0305 ± 0.012 | -0.0905 ± 0.029 | -0.086 ± 0.031 | -0.0205 ± 0.081 | -0.039 ± 0.1 | -0.0125 ± 0.016 | -0.045 ± 0.024 | -0.126 ± 0.059 | -0.0005 ± 0.0064 | -0.0815 ± 0.026 | -0.135 ± 0.016 | -0.135 ± 0.099 | -0.2 ± 0.054 | 0.027 ± 0.017 | 0.03 ± 0.021 | 0.003 ± 0.081
11 | HDF3CGF:M-CSF | 0.0055 ± 0.018 | 0.006 ± 0.025 | -0.001 ± 0.027 | 0.0165 ± 0.0078 | 0.012 ± 0.0014 | -0.151 ± 0.018 | 0.0045 ± 0.035 | 0.0335 ± 0.00071 | 0.004 ± 0.02 | 0.0235 ± 0.016 | -0.009 ± 0.0028 | -0.113 ± 0.016 | -0.0555 ± 0.067 | -0.065 ± 0.011 | -0.152 ± 0.0078 | -0.058 ± 0.041 | -0.089 ± 0.025 | -0.015 ± 0.059 | 0.013 ± 0.021 | -0.006 ± 0.05
12 | HDF3CGF:MMP-1 | -0.008 ± 0.016 | -0.005 ± 0.011 | 0.0005 ± 0.013 | -0.0075 ± 0.011 | -0.0155 ± 0.0092 | -0.0025 ± 0.005 | 0.0025 ± 0.018 | -0.0035 ± 0.0021 | -0.016 ± 0.059 | -0.019 ± 0.011 | -0.021 ± 0.0057 | -0.05 ± 0.0042 | -0.023 ± 0.011 | -0.0485 ± 0.013 | -0.068 ± 0.011 | -0.0875 ± 0.005 | -0.118 ± 0.011 | 0.0155 ± 0.036 | 0.0045 ± 0.016 | -0.0145 ± 0.043
13 | HDF3CGF:PAI-I | 0.051 ± 0.0028 | 0.0455 ± 0.019 | 0.063 ± 0.02 | 0.0485 ± 0.0064 | 0.011 ± 0.021 | -0.181 ± 0.18 | -0.037 ± 0.037 | -0.0045 ± 0.025 | -0.054 ± 0.083 | -0.028 ± 0.035 | -0.101 ± 0.06 | -0.2695 ± 0.0021 | 0.0225 ± 0.013 | 0.0375 ± 0.0021 | 0.045 ± 0.024 | 0.0685 ± 0.033 | 0.0245 ± 0.015 | 0.0415 ± 0.044 | -0.0095 ± 0.021 | 0.025 ± 0.075
14 | HDF3CGF:Proliferation 72hr | -0.001 ± 0.073 | 0.0205 ± 0.073 | -0.056 ± 0.095 | 0.13 ± 0.079 | 0.155 ± 0.09 | -0.732 ± 0.039 | -0.011 ± 0.023 | 0.0255 ± 0.032 | -0.029 ± 0.013 | 0.017 ± 0.065 | -0.0105 ± 0.087 | -0.374 ± 0.034 | 0.0245 ± 0.00071 | 0.116 ± 0.011 | -0.0545 ± 0.036 | 0.101 ± 0.022 | -0.081 ± 0.054 | 0.04 ± 0.0014 | 0.015 ± 0.034 | 0.0305 ± 0.037
